Reference: patent US4980377A, “1-(aminophenyl)-2-aminopropanone derivatives” (Laboratoire L. Lafon, priority 1984, dated 1990)
“Also recorded” adds a separate entry of the source. Counter-ions that a name gives are not always drawn.

What was measured:
rats [1] = assay: Interaction with amphetamine; format: in vivo, rat; details: i.p.
Protocol: Amphetamine (2 mg/kg) is injected intraperitoneally into groups of 6 rats 30 minutes after the administration of CRL 41 153. […] 4 mg/kg and 16 mg/kg, CRL 41 153 potentiates the intensity and duration of the stereotypies induced by amphetamine.

rats [2] = assay: Overall behavior and reactivities in rats; format: in vivo, rat; details: i.p.
Protocol: In the neuropsychopharmacological study which follows, a solution of CRL 41 153 in distilled water (pH 1.5) was administered intraperitoneally in a volume of 20 ml/kg to male mice and 5 ml/kg to male rats.
Groups of three animals are observed before and then 0.25 hour, 0.50 hour, 1 hour, 2 hours, 3 hours and 24 hours after the administration of CRL 41 153.

mice [3] = assay: Intergroup aggressiveness; format: in vivo, mouse; details: i.p.
Protocol: After they have stayed for 3 weeks in the two halves of a cage divided by an opaque partition, groups of 3 mice receive CRL 41 153. Half an hour later, the two groups from the same cage are brought together by removal of the partition, and the number of fights which occur in 10 minutes is noted.

[4] = pH of solutions in distilled water; format: physicochemical; details: administered solution in distilled water, concentration not given
Protocol: The neuropsychopharmacological study was undertaken according to the procedures described above for CRL 41 153, CRL 41 213 being adminstered intraperitoneally, in solution in distilled water, in a volume of 20 ml/kg to male mice and a volume of 5 ml/kg to male rats, and the pH of the injected solution varying with the concentration of CRL 41 213 according to the data given in Table II below.

mice [5] = assay: Motility reduced by habituation to the enclosure; format: in vivo, mouse; details: i.p.
Protocol: After they have stayed In the actimeters for 18 hours, (he mice (6 per dose, 12 control animals) receive CRL 41 153. They are immediately returned to their respective enclosures and, half an hour later, their motility is recorded for 30 minutes.

CC(C)NC(C)C(=O)c1ccc(N)cc1 (stereo not drawn) [CRL 41 153, 1-(4-aminophenyl)-2-isopropylaminopropanone dihydrochloride]
Effect on stereotypies induced by amphetamine (rats [1]): at doses of 1 mg/kg. 4 mg/kg and 16 mg/kg, CRL 41 153 potentiates the intensity and duration of the stereotypies induced by amphetamine | Observed symptoms (rats [2]; 0.25 mg/kg): no particular symptoms | Observed symptoms (rats [2]; 1 mg/kg): mydriasis for 1 hour, reaching its maximum value 1 hour after administration | Hyperthermia (maximum temperature change) (rats [2]; 4 mg/kg, 0.5 hour after administration): +1.9 °C | Observed symptoms (rats [2]; 4 mg/kg, dihydrochloride): excitation 0.5 hour after administration and stereotypies for 2 hours; also recorded: hyperthermia for 3 hours; also recorded: mydriasis for 2 hours, reaching its maximum value 0.5 hour after administration | Observed symptoms (rats [2]; 16 mg/kg, dihydrochloride): excitation 0.5 hour after administration; also recorded: stereotypies for 3 hours; also recorded: an increase in the fear reaction for 3 hours; also recorded: mydriasis for 3 hours, at a maximum 0.5 hour after administration | Number of fights / intergroup aggressiveness (mice [3]): at a dose of 8 mg/kg, CRL 41 153 reduces the number of fights | pH [4]: 1.5 | Motor activity of mice accustomed to their enclosure (mice [5]): causes a distinct resumption in the motor activity of mice accustomed to their enclosure
